Assay results reported in US5489580A, “Phospholipid compounds and use therefor” (University of Connecticut, priority 1992, dated 1996).
Converted amounts (≈) assume the structure as drawn.

What was measured:
Type in all cases: cell-based
[1] = system: HUT 78 leukemic cell line; experiment: LDH release cytotoxicity assay, HUT 78; details: Homo sapiens, HuT78, 5×10^5 cells/mL, 10% fetal calf serum, incubation 2, 4, 8 and 24 hours, time of ID50 not given
Description: (§1) The compounds of the present invention were tested for their cytotoxic effects upon various leukemic cell lines. The effectiveness of each of the compounds tested was measured through assessing the leakage of the cytosolic enzyme, lactic dehydrogenase (LDH), from the leukemia cells into the media following incubation with the compound.
(§2) The LDH release assay used was a modified microtiter plate enzyme linked immunosorbent assay LDH release assay. Seven mg of each phospholipid compound to be tested was completely dissolved in separate 700 μL volumes of 100% ethanol. The ethanolic solutions were then diluted to form stock solutions by the addition of 70 mL RPMI complete medium until the concentration of phospholipid in each solution was lowered to about 100 μg/mL. An RPMI complete medium contains a RPMI 1640 medium, without red phenol, 20 mM Hepes buffer, 2 mM L-glutamine, 50 μM 2-mercaptoethanol and 20% of fetal calf serum. To form an ethanol control, a 350 μL aliquot of ethanol was added to a small glass bottle containing 35 mL of RPMI complete medium.
(§3) Each stock solution was mixed by magnetic stirring bar at room temperature for one hour and then filtered through a 0.22 μm Millipore filter, where the filter was pre-rinsed with 0.6 mL of RPMI complete medium. The stock solutions were subsequently placed in a shaker in a cold room overnight and subsequently stored in small glass bottles wrapped with aluminum foil at 4° C.
(§4) Each stock solution was shaken for 30 minutes at room temperature. Then each phospholipid stock solution was separately diluted, in small glass vials, with RPMI complete medium to form solutions with phospholipid concentrations of 80 μg, 40 μg, 20 μg and 10 μg.
(§5) For each cell line, the leukemia cells were removed from the culture flask, put into a 50 mL conical tube, centrifuged at 500 rpm for 10 minutes and then washed once with fresh RPMI 1640 medium.
(§6) Aliquots (0.4 mL) of each 100 μg, 80 μg, 40 μg, 20 μg and 10 μg phospholipid solution were added to small vials containing 0.4 mL of cell suspension to form test solutions with phospholipid concentrations of 50, 40, 20, 10 and 5 μg/mL; cell densities of 5×10^5 cells/mL; and 10% fetal calf serum in RPMI complete medium. For an ethanol control group, an aliquot of 0.4 mL of the ethanol control was mixed with 0.4 mL of cell suspension to form a control group with an ethanol concentration of 0.495% and a cell density of 5×10^5 cells/mL. For a negative control group, a 0.4 mL aliquot of RPMI complete medium was added to 0.4 mL of cell suspension to give a cell density of 5×10^5 cells/mL. For a positive control group, cell suspension was diluted with RPMI 1640 medium, which contained 10% fetal calf serum, 20 mM Hepes buffer, 2 mM L-glutamine and 2-mercaptoethanol and stored overnight at -70° C.
(§7) Aliquots (0.2 mL) of each test solution and control group were added to flat bottomed Linbro microtiter plates, in triplicate, and incubated for 2, 4, 8 and 24 hours. Following incubation, the plates were centrifuged at 500 rpm for 5 minutes. Supernatant aliquots of 0.1 mL were then transferred to separate wells on an optic-clear, flat-bottomed microtiter plate. A volume of 0.1 mL of an LDH substrate mixture, containing 5.4×10^-2 M L(+)-lactate, 6.6×10^-4 MINT, provided by Sigma Chemical Company, 2.8×10^-4 M PMS, and 1.3×10^-3M NAD in a 0.2 M Tris buffer of pH 8.2, was added to each well. A Linbro-Titertek Company Lambda microtiter plate reader was used to monitor the absorbance at 490 nm.
(§8) The cytotoxic effectiveness of each compound tested, as provided in Table I, is described in terms of the ID50 of the drug. The ID50 is the concentration of the compound tested that is required to produce a cytotoxicity that is 50% of the control's cytotoxicity.

[2] = system: NAMALWA leukemic cell line; experiment: LDH release cytotoxicity assay, NAMALWA; details: 5×10^5 cells/mL, 10% fetal calf serum, incubation 2, 4, 8 and 24 hours, time of ID50 not given
Description: as §1, §2, §3, §4, §5, §6, §7, §8

CEM leukemic cell line = experiment: LDH release cytotoxicity assay, CEM; details: 5×10^5 cells/mL, 10% fetal calf serum, incubation 2, 4, 8 and 24 hours, time of ID50 not given
Description: as §1, §2, §3, §4, §5, §6, §7, §8

HL60 leukemic cell line = experiment: LDH release cytotoxicity assay, HL60; details: Homo sapiens, HL-60, 5×10^5 cells/mL, 10% fetal calf serum, incubation 2, 4, 8 and 24 hours, time of ID50 not given
Description: as §1, §2, §3, §4, §5
Aliquots (0.4 mL) of each 100 μg, 80 μg, 40 μg, 20 μg and 10 μg phospholipid solution were added to small vials containing 0.4 mL of cell suspension to form test solutions with phospholipid concentrations of 50, 40, 20, 10 and 5 μg/mL; cell densities of 5×10^5 cells/mL; and 10% fetal calf serum in RPMI complete medium. For an ethanol control group, an aliquot of 0.4 mL of the ethanol control was mixed with 0.4 mL of cell suspension to form a control group with an ethanol concentration of 0.495% and a cell density of 5×10^5 cells/mL. […]
Aliquots (0.2 mL) of each test solution and control group were added to flat bottomed Linbro microtiter plates, in triplicate, and incubated for 2, 4, 8 and 24 hours. […] A Linbro-Titertek Company Lambda microtiter plate reader was used to monitor the absorbance at 490 nm. […]

Row | Compound | IC50 [1] [mg/L] | IC50 [2] [mg/L] | IC50 (CEM leukemic cell line) [mg/L] | IC50 (HL60 leukemic cell line) [mg/L]
1 | CCCCCCCCCCCCCCCCCCOCC(COP(=O)([O-])OCC[N+]1(C)CCCC1)OC (stereo not drawn) [2-O-Methyl-1-O-octadecylglycero-3-phospho-(β-(N-methylpyrrolidino))ethanol] | 13 (≈ 23.6 µM) | 17.5 (≈ 31.8 µM) | 3.4 (≈ 6.18 µM) | 
2 | CCCCCCCCCCCCCCCCC[C@@H]1CO[C@@H](COP(=O)([O-])OCC[N+](C)(C)C)CO1 [(2R,5R)-(5-heptadecyl-1,4-dioxan-2-yl) methyloxyphosphocholine] |  | 4 (≈ 7.67 µM) | 4 (≈ 7.67 µM) | 4 (≈ 7.67 µM)
3 | CCCCCCCCCCCCCCCCC[C@H]1CO[C@H](COP(=O)([O-])OCC[N+](C)(C)C)CO1 [(2S,5S)-(5-heptadecyl-1,4-dioxan-2-yl)methyloxyphosphocholine] |  | < 2 | < 2 | < 2
4 | CCCCCCCCCCCCCCCCCCOC[C@H](COP(=O)([O-])O[C@@H](C)C[N+](C)(C)C)OC [(2R,αS)-2-O-Methyl-1-O-octadecyl-sn-glycero-3-phospho-(α-methyl)choline] | 15.2 (≈ 28.3 µM) | 21.5 (≈ 40 µM) | 4.5 (≈ 8.37 µM) | 
5 | CCCCCCCCCCCCCCCCC[C@H]1CO[C@@H](COP(=O)([O-])OCC[N+](C)(C)C)CO1 [(2R,5S)-(5-heptadecyl-1,4-dioxan-2-yl)methyloxyphosphocholine] |  | < 2 | < 2 | < 2
6 | CCCCCCCCCCCCCCCCCCOC[C@H](COP(=O)([O-])OC[C@@H](C)[N+](C)(C)C)OC [(2R,βR)-2-O-Methyl-1-O-octadecyl-sn-glycero-3-phospho-(β-methyl)choline] | 11.2 (≈ 20.8 µM) | 13.5 (≈ 25.1 µM) | 3.3 (≈ 6.14 µM) | 
7 | CCCCCCCCCCCCCCCCCCOC[C@H](COP(=O)([O-])O[C@H](C)C[N+](C)(C)C)OC [(2R,αR)-2-O-Methyl-1-O-octadecyl-sn-glycero-3-phospho-(α-methyl)choline] | 21 (≈ 39.1 µM) | 22 (≈ 40.9 µM) | 5.6 (≈ 10.4 µM) | 
8 | CCCCCCCCCCCCCCCCC[C@@H]1CO[C@H](COP(=O)([O-])OCC[N+](C)(C)C)CO1 [(2S,5R)-(5-heptadecyl-1,4-dioxan-2-yl)methyloxyphosphocholine] |  | 4 (≈ 7.67 µM) | 4 (≈ 7.67 µM) | 4 (≈ 7.67 µM)
9 | CCCCCCCCCCCCCCCCCCOCC(COP(=O)([O-])OCC[N+]1(C)CCOCC1)OC (stereo not drawn) [2-O-Methyl-1-O-octadecylglycero-3-phospho-(β-(N-methylmorpholino))ethanol] | 6.6 (≈ 11.7 µM) | 11 (≈ 19.4 µM) | 3.6 (≈ 6.36 µM) | 
10 | CCCCCCCCCCCCCCCCCCOC[C@H](COP(=O)([O-])OC[C@H](C)[N+](C)(C)C)OC [(2R,βS)-2-O-Methyl-1-O-octadecyl-sn-glycero-3-phospho-(β-methyl)choline] | 6.6 (≈ 12.3 µM) | 12.8 (≈ 23.8 µM) | 2.85 (≈ 5.3 µM) | 
11 | CCCCCCCCCCCCCCCCCCOC[C@H](COP(=O)(O)O)OC [(R)-2-O-Methyl-1-O-octadecyl-sn-glycero-3-phosphoric acid] | 3 (≈ 6.84 µM) | 24 (≈ 54.7 µM) | 2.95 (≈ 6.73 µM) | 
